Results taken from paper PMC7377962 (Nature chemical biology, 2020).

Biological target: T1, Mur23 (Streptomyces sp. NRRL 30471, UniProt F2WUD5)
T1 sequence (F2WUD5 1-388): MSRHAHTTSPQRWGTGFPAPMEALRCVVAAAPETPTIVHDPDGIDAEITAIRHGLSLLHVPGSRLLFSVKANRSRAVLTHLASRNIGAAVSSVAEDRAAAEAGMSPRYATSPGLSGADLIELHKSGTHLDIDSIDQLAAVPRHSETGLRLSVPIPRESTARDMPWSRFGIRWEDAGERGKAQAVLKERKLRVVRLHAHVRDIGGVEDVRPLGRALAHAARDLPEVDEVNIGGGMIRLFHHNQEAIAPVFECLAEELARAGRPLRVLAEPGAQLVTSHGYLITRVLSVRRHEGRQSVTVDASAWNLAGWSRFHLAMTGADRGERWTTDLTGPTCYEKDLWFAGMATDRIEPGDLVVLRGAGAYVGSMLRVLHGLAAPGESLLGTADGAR
Test: co-purification, UV/Vis spectrum
Format: binding
Settings: bound as purified

## Cc1ncc(COP(=O)(O)O)c(C=O)c1O [PLP, pyridoxal-5′-phosphate]
  co-purification, UV/Vis spectrum: Mur23 copurified with PLP as evident by the yellow color and the characteristic UV/Vis spectrum
